According to ChEMBL document CHEMBL1130473, “Synthesis and in vitro antibacterial activities of novel conformationally restricted hygromycin a analogues” (1997):
Converted amounts (≈) assume the structure as drawn.

What was measured:
Assay type in all cases: functional
[1] = test system: Brachyspira hyodysenteriae; assay: Compound was tested for minimum inhibitory concentration against Serpulina hyodysenteriae
[2] = test system: Pasteurella multocida; assay: Compound was tested for minimum inhibitory concentration against Pasteurella multocida
[3] = test system: Brachyspira hyodysenteriae; assay: Compound was tested for minimum inhibitory concentration against S. hyodysenteriae; 6.25-12.5

Row | SMILES | MIC [1] | MIC [2] | MIC [3]
1 | CC/C=C1\COc2cc(/C=C(\C)C(=O)N[C@@H]3[C@H](O)[C@@H](O)[C@H]4OCO[C@H]4[C@@H]3O)ccc21 |  | 50 µg/mL (≈ 120 µM) | 
2 | CCCc1coc2cc(/C=C(\C)C(=O)N[C@@H]3[C@H](O)[C@@H](O)[C@H]4OCO[C@H]4[C@@H]3O)ccc12 |  | 50 µg/mL (≈ 120 µM) | 
3 | C=CCOc1ccc2c(c1O)CCC(C(=O)N[C@@H]1[C@H](O)[C@@H](O)[C@H]3OCO[C@H]3[C@@H]1O)=C2 | > 200 µg/mL | > 200 µg/mL | 
4 | C=CCOc1cc2c(cc1O)C=C(C(=O)N[C@@H]1[C@H](O)[C@@H](O)[C@H]3OCO[C@H]3[C@@H]1O)C2 | > 200 µg/mL | > 200 µg/mL | 
5 | CC/C=C1/COc2cc(/C=C(\C)C(=O)N[C@@H]3[C@H](O)[C@@H](O)[C@H]4OCO[C@H]4[C@@H]3O)ccc21 |  | 50 µg/mL (≈ 120 µM) | 
6 | C=CCOc1cc2ccc(C(=O)N[C@@H]3[C@H](O)[C@@H](O)[C@H]4OCO[C@H]4[C@@H]3O)cc2cc1O | 50 µg/mL (≈ 120 µM) | 50 µg/mL (≈ 120 µM) | 

Stronger by MIC [2], values ahead:

Row | MIC [1] | MIC [2] | MIC [3] | SMILES
7 | 25 µg/mL (≈ 57.7 µM) | 25 µg/mL (≈ 57.7 µM) |  | C=CCOc1cc2c(cc1O)C=C(C(=O)N[C@@H]1[C@H](O)[C@@H](O)[C@H]3OCO[C@H]3[C@@H]1O)CCC2
8 |  | 6.25 µg/mL (≈ 14.9 µM) |  | CCCC1COc2cc(/C=C(\C)C(=O)N[C@@H]3[C@H](O)[C@@H](O)[C@H]4OCO[C@H]4[C@@H]3O)ccc21 (some centres undefined)
9 |  | 12.5 µg/mL (≈ 29.8 µM) | 6.25 µg/mL (≈ 14.9 µM) | C=CCOc1cc2c(cc1O)C=C(C(=O)N[C@@H]1[C@H](O)[C@@H](O)[C@H]3OCO[C@H]3[C@@H]1O)CC2
